Measurements: ChEMBL document CHEMBL4513138, “CO-ADD screening of University of Mosul (Iraq) compounds”

What was measured:
Staphylococcus aureus = assay: microbe, parasite or virus in culture; conditions: ATCC 43300, 18 h, ASSAY_TEST Inhibition of Bacterial Growth, detection method Absorption (OD600), MEDIA CAMHB, plate type 384well, NBS, CORNING #3640
Description: Antibacterial activity against Staphylococcus aureus MRSA ATCC 43300 (CO-ADD:GP_020); MIC in CAMBH media, using NBS plates, by OD(600)

Klebsiella pneumoniae = assay: microbe, parasite or virus in culture; conditions: ATCC 700603, 18 h, ASSAY_TEST Inhibition of Bacterial Growth, detection method Absorption (OD600), MEDIA CAMHB, plate type 384well, NBS, CORNING #3640
Description: Antibacterial activity against Klebsiella pneumoniae MDR ATCC 70063 (CO-ADD:GN_003); MIC in CAMBH media using NBS plates, by OD(600)

Escherichia coli = assay: microbe, parasite or virus in culture; conditions: ATCC 25922, 18 h, ASSAY_TEST Inhibition of Bacterial Growth, detection method Absorption (OD600), MEDIA CAMHB, plate type 384well, NBS, CORNING #3640
Description: Antibacterial activity against Escherichia coli ATCC 25922 (CO-ADD:GN_001); MIC in CAMBH media using NBS plates, by OD(600)

Pseudomonas aeruginosa = assay: microbe, parasite or virus in culture; conditions: ATCC 27853, 18 h, ASSAY_TEST Inhibition of Bacterial Growth, detection method Absorption (OD600), MEDIA CAMHB, plate type 384well, NBS, CORNING #3640
Description: Antibacterial activity against Pseudomonas aeruginosa ATCC 27853 (CO-ADD:GN_042); MIC in CAMBH media using NBS plates, by OD(600)

HEK293 = assay: cells; type: functional; conditions: Homo sapiens, ATCC CRL1573, HEK293; ASSAY_TEST Inhibition of Cell Viability; detection method Resazurin; Fluorescence (ex560/em590); MEDIA DMEM with 10% FBS; plate type 384well; TC; CORNING #3712; time 18 hr
Acinetobacter baumannii = assay: microbe, parasite or virus in culture; conditions: ATCC 19606, 18 h, ASSAY_TEST Inhibition of Bacterial Growth, detection method Absorption (OD600), MEDIA CAMHB, plate type 384well, NBS, CORNING #3640
Description: Antibacterial activity against Acinetobacter baumannii ATCC 19606 (CO-ADD:GN_034); MIC in CAMBH media using NBS plates, by OD600

Candida albicans = assay: microbe, parasite or virus in culture; conditions: ATCC 90028, ASSAY_TEST Inhibition of Fungal Growth, detection method Absorption (OD530), plate type 384well, NBS, CORNING #3640
Description: Antifungal activity against Candida albicans ATCC 90028 (CO-ADD:FG_001); MIC in YNB media using NBS plates, by OD630

Description for Cryptococcus neoformans: Antifungal activity against Cryptococcus neoformans H99 ATCC 208821 (CO-ADD:FG_002); MIC in YNB media using NBS plates, by Resazurin OD(600-570)

MIC (Cryptococcus neoformans) [µg/mL] | MIC (Staphylococcus aureus) [µg/mL] | MIC (Klebsiella pneumoniae) [µg/mL] | MIC (Escherichia coli) [µg/mL] | MIC (Pseudomonas aeruginosa) [µg/mL] | MIC (Acinetobacter baumannii) [µg/mL] | MIC (Candida albicans) [µg/mL] | SMILES | CC50 (HEK293) [µg/mL]
> 32 | ≤ 0.25 | ≤ 0.25 | ≤ 0.25 | 4 | ≤ 0.25 | > 32 | COc1c(N2CC3CCCNC3C2)c(F)cc2c(=O)c(C(=O)Nc3ccc(-c4n[nH]c(=S)o4)cc3)cn(C3CC3)c12.Cl (configuration not stated) | 6.76
> 32 | ≤ 0.25 | ≤ 0.25 | ≤ 0.25 | ≤ 0.25 | 0.5 | > 32 | CC1COc2c(N3CCN(C)CC3)c(F)cc3c(=O)c(C(=O)Nc4ccc(-c5n[nH]c(=S)o5)cc4)cn1c23.Cl (configuration not stated) | > 32
> 32 | 32 | 32 | 4 | 32 | 32 | > 32 | Cl.O=C(Nc1ccc(-c2n[nH]c(=S)o2)cc1)c1cn(C2CC2)c2cc(N3CCNCC3)c(F)cc2c1=O | 17.8
> 32 | > 32 | > 32 | > 32 | > 32 | > 32 | > 32 | CC(O)C1C(=O)N2C(C(=O)Nc3ccc(-c4n[nH]c(=S)o4)cc3)=C(SC3CNC(C(=O)N(C)C)C3)C(C)C12.Cl (configuration not stated) | > 32
